BindingDB's records for patent US11897867 (Bayer Aktiengesellschaft, 2024)

Assays:
[1] = molecular target: cGMP-inhibited 3',5'-cyclic phosphodiesterase 3A (Homo sapiens, UniProt Q14432); assay: PDE3A Enzyme Inhibition
Procedure: (§1) The commercially available 3H-cAMP Scintillation Proximity Assay (SPA, Perkin Elmer) system was used for enzyme inhibition studies. For the determination of the in vitro effect of test substances on the PDE3A reactions 2 μl of the respective test compound solution in DMSO (serial dilutions) were is placed in wells of microtiter plates (Isoplate-96/200W; Perkin Elmer). 50 μl of a dilution of PDE3A cell extract from Sf9 cells overexpressing human full length PDE3A (SB Drug Discovery, UK) in buffer A (50 mM Tris/HCl pH 7.5, 8.3 mM MgCl2, 1.7 mM EDTA, 0.2% BSA) was added. The dilution of the PDE3A cell extract was chosen such that the reaction kinetics was linear and less than 70% of the substrate was consumed (typical dilution 1:5000). The reaction was started by addition of 50 μl (0.025 μCi) of 1:2000 in buffer A w/o BSA diluted substrate [8-3H] adenosine 3′,5′-cyclic phosphate (1 μCi/μl; Perkin Elmer). After incubation at room temperature for 60 min, the reaction was stopped by addition of 25 μl of a suspension containing 18 mg/ml yttrium scintillation proximity beads (Perkin Elmer) in water. The microtiter plates were sealed and measured in a Microbeta scintillation counter (PerkinElmer Wallac). IC50 values were determined from sigmoidal curves by plotting percentage PDE3A activity vs log compound concentration.

[2] = molecular target: cGMP-inhibited 3',5'-cyclic phosphodiesterase 3B (Homo sapiens, UniProt Q13370); assay: PDE3B Enzyme Inhibition
Procedure: as §1, with “PDE3B” for “PDE3A”, “were” for “were is”, “1:6000).” for “1:5000).”

Sequence of cGMP-inhibited 3',5'-cyclic phosphodiesterase 3A (Q14432 whole entry): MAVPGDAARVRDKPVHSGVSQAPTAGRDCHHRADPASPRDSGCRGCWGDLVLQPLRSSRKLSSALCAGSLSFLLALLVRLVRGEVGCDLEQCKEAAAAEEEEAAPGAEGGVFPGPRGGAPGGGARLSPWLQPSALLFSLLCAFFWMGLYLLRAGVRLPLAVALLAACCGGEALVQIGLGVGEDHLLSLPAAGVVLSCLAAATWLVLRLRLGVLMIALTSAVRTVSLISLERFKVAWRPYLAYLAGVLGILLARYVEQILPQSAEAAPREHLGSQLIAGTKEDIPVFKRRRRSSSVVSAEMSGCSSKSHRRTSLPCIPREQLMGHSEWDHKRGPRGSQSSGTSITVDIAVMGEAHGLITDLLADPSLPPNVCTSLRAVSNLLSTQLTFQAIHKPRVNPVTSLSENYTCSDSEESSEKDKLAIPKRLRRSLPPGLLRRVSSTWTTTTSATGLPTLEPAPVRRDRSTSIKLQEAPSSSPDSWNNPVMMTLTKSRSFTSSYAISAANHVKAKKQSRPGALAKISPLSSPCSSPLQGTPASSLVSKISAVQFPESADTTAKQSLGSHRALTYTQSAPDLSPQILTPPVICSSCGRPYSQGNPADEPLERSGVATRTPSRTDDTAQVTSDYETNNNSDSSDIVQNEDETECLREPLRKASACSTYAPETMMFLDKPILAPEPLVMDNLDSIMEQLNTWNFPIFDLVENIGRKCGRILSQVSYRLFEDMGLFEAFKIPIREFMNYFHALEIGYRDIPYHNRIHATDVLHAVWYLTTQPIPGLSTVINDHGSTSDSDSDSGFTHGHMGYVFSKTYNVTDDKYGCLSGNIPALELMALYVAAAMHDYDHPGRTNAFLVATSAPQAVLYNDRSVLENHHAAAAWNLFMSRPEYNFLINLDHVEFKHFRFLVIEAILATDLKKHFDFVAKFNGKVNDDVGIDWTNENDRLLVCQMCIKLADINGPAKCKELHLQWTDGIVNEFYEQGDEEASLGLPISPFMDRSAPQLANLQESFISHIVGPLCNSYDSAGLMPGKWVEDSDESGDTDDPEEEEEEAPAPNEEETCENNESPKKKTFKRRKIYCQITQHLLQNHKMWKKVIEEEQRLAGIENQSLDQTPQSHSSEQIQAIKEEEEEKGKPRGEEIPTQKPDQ
Sequence of cGMP-inhibited 3',5'-cyclic phosphodiesterase 3B (Q13370 whole entry): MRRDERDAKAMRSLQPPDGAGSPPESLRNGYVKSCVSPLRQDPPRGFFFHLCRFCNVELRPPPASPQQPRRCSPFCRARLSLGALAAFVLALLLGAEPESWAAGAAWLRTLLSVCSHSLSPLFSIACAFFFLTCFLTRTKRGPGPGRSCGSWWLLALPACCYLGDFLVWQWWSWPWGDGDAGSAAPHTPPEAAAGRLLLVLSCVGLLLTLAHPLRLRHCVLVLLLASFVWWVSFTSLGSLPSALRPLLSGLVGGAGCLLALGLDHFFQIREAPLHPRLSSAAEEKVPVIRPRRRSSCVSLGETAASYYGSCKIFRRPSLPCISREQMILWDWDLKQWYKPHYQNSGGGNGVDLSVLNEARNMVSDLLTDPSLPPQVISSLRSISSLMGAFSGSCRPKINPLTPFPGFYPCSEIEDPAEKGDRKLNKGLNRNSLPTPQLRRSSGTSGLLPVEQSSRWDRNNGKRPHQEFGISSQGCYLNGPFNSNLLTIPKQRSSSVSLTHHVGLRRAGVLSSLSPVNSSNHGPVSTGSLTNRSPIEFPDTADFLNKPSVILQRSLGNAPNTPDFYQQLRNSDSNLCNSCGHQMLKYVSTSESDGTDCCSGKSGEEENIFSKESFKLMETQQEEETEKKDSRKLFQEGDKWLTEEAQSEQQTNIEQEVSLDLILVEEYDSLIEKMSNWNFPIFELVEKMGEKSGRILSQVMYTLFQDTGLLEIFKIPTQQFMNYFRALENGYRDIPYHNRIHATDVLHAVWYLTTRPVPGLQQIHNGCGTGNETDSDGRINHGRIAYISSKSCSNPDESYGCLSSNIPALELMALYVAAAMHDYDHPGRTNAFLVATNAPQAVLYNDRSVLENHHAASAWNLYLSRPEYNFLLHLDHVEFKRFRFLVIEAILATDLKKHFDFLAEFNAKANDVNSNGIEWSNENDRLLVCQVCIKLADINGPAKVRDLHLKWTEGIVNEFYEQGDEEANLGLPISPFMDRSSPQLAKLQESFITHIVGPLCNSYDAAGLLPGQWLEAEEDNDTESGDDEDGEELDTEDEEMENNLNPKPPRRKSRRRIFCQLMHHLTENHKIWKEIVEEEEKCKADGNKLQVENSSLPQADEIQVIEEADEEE

| IC50 [2] [µM] | SMILES | IC50 [1] [µM] |
| --- | --- | --- |
|  | O=C1CCC(c2ccc(N3CCOCC3)cc2)=NN1 [US11897867, Example 123] | > 1 |
| 0.11 | O=C1CCC(c2ccc(-c3ccccc3C(F)(F)F)c(F)c2)=NN1 [US11897867, Example 61] | 0.44 |
